{
  "source": "patent US10612035B2",
  "about": "“EPSPS mutants” (priority 2006, dated 2020)",
  "key": {"[1]": {"test_system": "EPSPS mutations in E coli (Area) and Arabidopsis NM 130093", "conditions": "mutations 1-9 of the table", "text": "To identify mutant EPSPS genes that will produce a gene product that provides resistance to glyphosate, in vitro screening can be done in a bacterial system to save time and resources. Growth curves of bacterial colonies expressing candidate mutant EPSPS genes can be generated to evaluate the mutant EPSPS genes in providing a glyphosate resistant phenotype. […] In another embodiment of the present invention, the E coli EPSPS gene, also called the AroA gene, can be used to evaluate EPSPS mutants for glyphosate resistance. Growth curve assays and enzymatic assays measuring Ki and Km values for candidate mutants are conducted according to well known assay techniques."}, "[2]": {"test_system": "Rice plants regenerated that contain the P173A mutant", "conditions": "applied at commercial rates; rice with P173A EPSPS mutant", "excerpt": "The following genoplast (recombinagenic oligonucleobase) was made to make a P173A change in Oryza sativa (rice) germplasm:\n(§1) wherein V is a fluorescent dye (V=Cy3) and H is a reverse nucleotide or reverse base (H=3′DMTdCCPG). The underlined nucleobases represent the heterologous region (codon) where the mutation occurs in the rice genome, ie, A. The genoplast is made according to well known techniques and the genoplast is preferably delivered into a rice plant cell via microparticle bombardment, ie, biolistics."}, "[3]": {"test_system": "Canola plants regenerated that contain the P178A mutant", "conditions": "applied at commercial rates; canola with P178A EPSPS mutant", "excerpt": "The following genoplast (recombinagenic oligonucleobase) was made to make a P178A change in Brassica napus (canola) germplasm:\nas §1, with “nucelobases” for “nucleobases”, “canola” for “rice”"}, "[4]": {"molecular_target": "wild-type EPSPS from E. coli (Escherichia coli, UniProt P0A6D3)", "sequence (P0A6D3 whole entry)": "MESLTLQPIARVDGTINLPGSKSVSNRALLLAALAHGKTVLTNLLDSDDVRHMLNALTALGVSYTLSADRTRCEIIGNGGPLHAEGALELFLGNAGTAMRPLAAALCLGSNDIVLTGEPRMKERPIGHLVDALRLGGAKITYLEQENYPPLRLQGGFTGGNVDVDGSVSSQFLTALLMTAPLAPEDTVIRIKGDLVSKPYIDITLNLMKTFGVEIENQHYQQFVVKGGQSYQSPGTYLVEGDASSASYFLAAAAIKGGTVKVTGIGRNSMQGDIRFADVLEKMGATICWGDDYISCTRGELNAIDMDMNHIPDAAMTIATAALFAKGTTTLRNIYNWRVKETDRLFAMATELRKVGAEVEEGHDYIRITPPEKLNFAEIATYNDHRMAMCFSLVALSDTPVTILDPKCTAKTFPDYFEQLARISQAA", "conditions": "read-out: apparent Km for PEP; cited from earlier work"}},
  "data": [
    {"smiles": "O=C(O)CNCP(=O)(O)O", "note": "[glyphosate, N-phosphonomethylglycine]", "values": [
      {"measurement": "glyphosate resistant phenotype", "setting": "[1]", "result": "resistant"},
      {"measurement": "resistance of plants to glyphosate", "setting": "[2]", "result": "resistant"},
      {"measurement": "resistance of plants to glyphosate", "setting": "[3]", "result": "resistant"}
    ]},
    {"smiles": "C=C(OP(=O)(O)O)C(=O)O", "note": "[PEP, phosphoenolpyruvic acid]", "values": [
      {"measurement": "Km", "setting": "[4]", "result": 10, "unit": "µM"}
    ]}
  ]
}
